Test results taken from patent US6274715A, “Tricyclic erythromycin derivatives” (priority 1997, dated 2001).
Values after ≈ are worked out from the molar mass of the structure shown.

Columns and labels:
Assay type in all cases: cell-based
[1] = tested on: STREPTOCOCCUS PYOGENES EES61; assay: In vitro antibacterial activity, MIC, BHI agar dilution; conditions: S. pyogenes EES61, unit assumed
EN[…] ATCC 8043 = assay: as above; conditions: E. faecium ATCC 8043, unit assumed
In short: (§1)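 BHI agar dilution, 12 plates; inoculum 1:100 (1:10 slow-growing strains), Steers replicator; 35-37° C, 20-24 h. MIC = lowest conc. with no growth/slight haze/sparse colonies vs growth control, visual read. Erythromycin A reference plate.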

M[…] ATCC 9341 = assay: as above; conditions: M. luteus ATCC 9341, unit assumed
In short: as §1

STR[…] 508 = assay: as above; conditions: S. agalactiae CMX 508, unit assumed
In short: as §1

M[…] ATCC 4698 = assay: as above; conditions: M. luteus ATCC 4698, unit assumed
In short: as §1

[2] = tested on: PSEUDOMONAS AERUGINOSA 5007; assay: as above; conditions: P. aeruginosa 5007, unit assumed
[3] = tested on: STAPHYLOCOCCUS AUREUS ATCC 6538P; assay: as above; conditions: S. aureus ATCC 6538P, 35-37° C., 20 to 24 hours, unit assumed
[4] = tested on: PSEUDOMONAS AERUGINOSA BMH10; assay: as above; conditions: P. aeruginosa BMH10, unit assumed
PSEUDOMONAS CEPACIA 296I = assay: as above; conditions: P. cepacia 296I, unit assumed
[5] = tested on: STAPHYLOCOCCUS AUREUS CMX 642A; assay: as above; conditions: S. aureus CMX 642A, unit assumed
[6] = tested on: STREPTOCOCCUS PYOGENES PIU 2548; assay: as above; conditions: S. pyogenes PIU 2548, unit assumed
ESCHERICHIA COLI DC-2 = assay: as above; conditions: E. coli DC-2, unit assumed
[7] = tested on: STREPTOCOCCUS BOVIS A-5169; assay: as above; conditions: S. bovis A-5169, unit assumed
[8] = tested on: KLEBSIELLA PNEUMONIAE ATCC 8045; assay: as above; conditions: K. pneumoniae ATCC 8045, unit assumed
[9] = tested on: STAPHYLOCOCCUS AUREUS 1775; assay: as above; conditions: S. aureus 1775, unit assumed
[10] = tested on: ACINETOBACTER CALCOACETICUS CMX 669; assay: as above; conditions: A. calcoaceticus CMX 669, unit assumed
CANDIDA ALBICANS CCH 442 = assay: as above; conditions: C. albicans CCH 442, unit assumed
[11] = tested on: PSEUDOMONAS AERUGINOSA K799/WT; assay: as above; conditions: P. aeruginosa K799/WT, unit assumed
[12] = tested on: STAPHYLOCOCCUS AUREUS NCTC10649M; assay: as above; conditions: S. aureus NCTC10649M, unit assumed
ESCHERICHIA COLI H560 = assay: as above; conditions: E. coli H560, unit assumed
[13] = tested on: PSEUDOMONAS AERUGINOSA DPHD-2862; assay: as above; conditions: P. aeruginosa DPHD-2862, unit assumed
[14] = tested on: ENTEROBACTER AEROGENES ATCC 13048; assay: as above; conditions: E. aerogenes ATCC 13048, unit assumed
[15] = tested on: MYCOBACTERIUM SMEGMATIS ATCC 114; assay: as above; conditions: M. smegmatis ATCC 114, unit assumed
[16] = tested on: STAPHYLOCOCCUS AUREUS A5177; assay: as above; conditions: S. aureus A5177, unit assumed
ESCHERICHIA COLI KNK 437 = conditions: E. coli KNK 437; BHI agar; unit assumed
[17] = tested on: PSEUDOMONAS AERUGINOSA DPHD-5263; assay: In vitro antibacterial activity, MIC, BHI agar dilution; conditions: P. aeruginosa DPHD-5263, unit assumed
[18] = tested on: STAPHYLOCOCCUS AUREUS CMX 553; assay: as above; conditions: S. aureus CMX 553, unit assumed
H. Influenza Dill AMP R = assay: In vitro antibacterial activity against H. Influenza Dill AMP R, MIC; conditions: separate assay, unit assumed
Method: Representative compounds of the present invention were assayed in vitro for antibacterial activity as follows: Twelve petri dishes containing successive aqueous dilutions of the test compound mixed with 10 mL of sterilized Brain Heart Infusion (BHI) agar (Difco 0418-01-5) were prepared. Each plate was inoculated with 1:100 (or 1:10 for slow-growing strains, such as Micrococcus and Streptococcus) dilutions of up to 32 different microorganisms, using a Steers replicator block. The inoculated plates were incubated at 35-37° C. for 20 to 24 hours. In addition, a control plate, using BHI agar containing no test compound, was prepared and incubated at the beginning and end of each test.
After incubation, each plate was visually inspected. The minimum inhibitory concentration (MIC) was defmed as the lowest concentration of drug yielding no growth, a slight haze, or sparsely isolated colonies on the inoculum spot as compared to the growth control.
In a separate assay representative compounds of the invention were assayed in vitro for antibacterial activity against the H. Influenza Dill AMP R strain, according to the protocol described above.

[19] = tested on: PSEUDOMONAS AERUGINOSA K799/61; assay: In vitro antibacterial activity, MIC, BHI agar dilution; conditions: P. aeruginosa K799/61, unit assumed
[20] = tested on: STAPHYLOCOCCUS EPIDERMIDIS 3519; conditions: S. epidermidis 3519; BHI agar; unit assumed
[21] = tested on: STAPHYLOCOCCUS AUREUS A-5278; assay: In vitro antibacterial activity, MIC, BHI agar dilution; conditions: S. aureus A-5278, unit assumed
[22] = tested on: PROVIDENCIA STUARTII CMX 640; conditions: P. stuartii CMX 640; BHI agar; unit assumed
[23] = tested on: STREPTOCOCCUS PYOGENES 930; assay: In vitro antibacterial activity, MIC, BHI agar dilution; conditions: S. pyogenes 930, unit assumed
ESCHERICHIA COLI SS = assay: as above; conditions: E. coli SS, unit assumed
ESCHERICHIA COLI JUHL = conditions: E. coli JUHL; BHI agar; unit assumed

Q: How did the MIC [1] turn out when `CC[C@H]1OC(=O)[C@H](C)C(=O)[C@H](C)[C@@H](O[C@@H]2O[C@H](C)C[C@H](N(C)C)[C@H]2O)[C@](C)(OC)C[C@@H](C)C2=N[C@@H]3COC[C@@H]3N3C(=O)O[C@@]1(C)[C@H]3[C@H]2C` [Example 18] was run?
A: 0.05 µg/mL (≈ 0.0735 µM)

Q: What about the MIC (EN[…] ATCC 8043) of the same compound?
A: 0.1 µg/mL (≈ 0.147 µM)

Q: What about the MIC (M[…] ATCC 9341) of the same compound?
A: 0.05 µg/mL (≈ 0.0735 µM)

Q: And the MIC (STR[…] 508)?
A: 0.05 µg/mL (≈ 0.0735 µM)

Q: What about the MIC (M[…] ATCC 4698) of the same compound?
A: 0.78 µg/mL (≈ 1.15 µM)

Q: What about the MIC [2] of the same compound?
A: > 100 µg/mL

Q: What about the MIC [3] of the same compound?
A: 0.39 µg/mL (≈ 0.574 µM)

Q: And the MIC [4]?
A: > 100 µg/mL

Q: What about the MIC (PSEUDOMONAS CEPACIA 296I) of the same compound?
A: > 100 µg/mL

Q: What about the MIC [5] of the same compound?
A: 0.78 µg/mL (≈ 1.15 µM)

Q: What about the MIC [6] of the same compound?
A: 0.39 µg/mL (≈ 0.574 µM)

Q: And the MIC (ESCHERICHIA COLI DC-2)?
A: > 100 µg/mL

Q: What about the MIC [7] of the same compound?
A: 0.05 µg/mL (≈ 0.0735 µM)

Q: And the MIC [8]?
A: > 100 µg/mL

Q: And the MIC [9]?
A: > 100 µg/mL

Q: What about the MIC [10] of the same compound?
A: > 100 µg/mL

Q: And the MIC (CANDIDA ALBICANS CCH 442)?
A: > 100 µg/mL

Q: And the MIC [11]?
A: > 100 µg/mL

Q: What about the MIC [12] of the same compound?
A: 0.78 µg/mL (≈ 1.15 µM)

Q: What about the MIC (ESCHERICHIA COLI H560) of the same compound?
A: > 100 µg/mL

Q: And the MIC [13]?
A: > 100 µg/mL

Q: What about the MIC [14] of the same compound?
A: > 100 µg/mL

Q: And the MIC [15]?
A: 3.1 µg/mL (≈ 4.56 µM)

Q: What about the MIC [16] of the same compound?
A: 0.78 µg/mL (≈ 1.15 µM)

Q: What about the MIC (ESCHERICHIA COLI KNK 437) of the same compound?
A: > 100 µg/mL

Q: And the MIC [17]?
A: > 100 µg/mL

Q: What about the MIC [18] of the same compound?
A: 0.78 µg/mL (≈ 1.15 µM)

Q: What about the MIC (H. Influenza Dill AMP R) of the same compound?
A: 8 µg/mL (≈ 11.8 µM)

Q: And the MIC [19]?
A: 6.2 µg/mL (≈ 9.12 µM)

Q: And the MIC [20]?
A: 0.78 µg/mL (≈ 1.15 µM)

Q: What about the MIC [21] of the same compound?
A: > 100 µg/mL

Q: What about the MIC [22] of the same compound?
A: > 100 µg/mL

Q: And the MIC [23]?
A: > 100 µg/mL

Q: What about the MIC (ESCHERICHIA COLI SS) of the same compound?
A: 0.78 µg/mL (≈ 1.15 µM)

Q: `CC[C@H]1OC(=O)[C@H](C)C(=O)[C@H](C)[C@@H](O[C@@H]2O[C@H](C)C[C@H](N(C)C)[C@H]2O)[C@](C)(OC)C[C@@H](C)C2=N[C@@H]3CNC[C@@H]3N3C(=O)O[C@@]1(C)[C@H]3[C@H]2C` [Example 19] was tested. Which MIC [1] did it give?
A: 0.05 µg/mL (≈ 0.0737 µM)

Q: And the MIC (EN[…] ATCC 8043)?
A: 0.05 µg/mL (≈ 0.0737 µM)

Q: And the MIC (M[…] ATCC 9341)?
A: 0.1 µg/mL (≈ 0.147 µM)

Q: And the MIC (STR[…] 508)?
A: 0.05 µg/mL (≈ 0.0737 µM)

Q: And the MIC (M[…] ATCC 4698)?
A: 0.2 µg/mL (≈ 0.295 µM)

Q: And the MIC [2]?
A: > 100 µg/mL

Q: And the MIC [3]?
A: 0.39 µg/mL (≈ 0.574 µM)

Q: And the MIC [4]?
A: 50 µg/mL (≈ 73.7 µM)

Q: What about the MIC (PSEUDOMONAS CEPACIA 296I) of the same compound?
A: > 100 µg/mL

Q: What about the MIC (ESCHERICHIA COLI JUHL) of the same compound?
A: 12.5 µg/mL (≈ 18.4 µM)

Q: What about the MIC [5] of the same compound?
A: 0.39 µg/mL (≈ 0.574 µM)

Q: What about the MIC [6] of the same compound?
A: 0.78 µg/mL (≈ 1.15 µM)

Q: What about the MIC (ESCHERICHIA COLI DC-2) of the same compound?
A: 6.2 µg/mL (≈ 9.13 µM)

Q: What about the MIC [7] of the same compound?
A: 0.005 µg/mL (≈ 0.00737 µM)

Q: And the MIC [8]?
A: 12.5 µg/mL (≈ 18.4 µM)

Q: And the MIC [9]?
A: > 100 µg/mL

Q: And the MIC [10]?
A: 6.2 µg/mL (≈ 9.13 µM)

Q: What about the MIC (CANDIDA ALBICANS CCH 442) of the same compound?
A: > 100 µg/mL

Q: And the MIC [11]?
A: > 100 µg/mL

Q: What about the MIC [12] of the same compound?
A: 0.39 µg/mL (≈ 0.574 µM)

Q: And the MIC (ESCHERICHIA COLI H560)?
A: 3.1 µg/mL (≈ 4.57 µM)

Q: What about the MIC [13] of the same compound?
A: > 100 µg/mL

Q: What about the MIC [14] of the same compound?
A: 12.5 µg/mL (≈ 18.4 µM)

Q: What about the MIC [15] of the same compound?
A: 3.1 µg/mL (≈ 4.57 µM)

Q: What about the MIC [16] of the same compound?
A: 0.39 µg/mL (≈ 0.574 µM)

Q: And the MIC (ESCHERICHIA COLI KNK 437)?
A: 6.2 µg/mL (≈ 9.13 µM)

Q: And the MIC [17]?
A: > 100 µg/mL

Q: And the MIC [18]?
A: 0.39 µg/mL (≈ 0.574 µM)

Q: And the MIC (H. Influenza Dill AMP R)?
A: 16 µg/mL (≈ 23.6 µM)

Q: And the MIC [19]?
A: 0.39 µg/mL (≈ 0.574 µM)

Q: What about the MIC [20] of the same compound?
A: 0.39 µg/mL (≈ 0.574 µM)

Q: And the MIC [21]?
A: > 100 µg/mL

Q: And the MIC [22]?
A: > 100 µg/mL

Q: What about the MIC [23] of the same compound?
A: > 100 µg/mL

Q: And the MIC (ESCHERICHIA COLI SS)?
A: 0.2 µg/mL (≈ 0.295 µM)
